Experimental data from patent EP0061341A2, “6-Substituted hexahydroindazolo isoquinolines” (priority 1981, dated 1982).

Test system: prolactin
Experiment: Serum prolactin levels in rats, reserpinized and non-reserpinized
Format: in vivo, rats of the Sprague-Dawley strain
Details: for Prolactin Levels Non-Reserpinized 1 / Prolactin Levels Non-Reserpinized 2: rats not pretreated with reserpine, compound 1 mg./kg.; for Prolactin Levels Non-Reserpinized 1: run 1; for Prolactin Levels Non-Reserpinized 2: run 2; for Prolactin Levels Reserpinize: reserpine 2.0 mg. i.p. 18 hours before, compound 1 mg./kg. intraperitoneally, serum one hour after treatment
Experimental: Adult male rats of the Sprague-Dawley strain weighing about 200 g. were housed in an air-conditioned room with controlled lighting (lights on 6 a.m. - 8 p.m.) and fed lab chow and water ad libitum. Each rat received an intraperitoneal.injection of 2.0 mg. of reserpine in aqueous suspension 18 hours before administration of the compound of formula I. The purpose of the reserpine was to keep prolactin levels uniformly elevated. The compounds under test were dissolved in water and were injected intraperitoneally at a 1 mg./kg. dose level. Each compound was administered to a group of 10 rats, and a control group of 10 intact males received an equivalent amount of solvent. One hour after treatment all rats were killed by decapitation, and 150 ul. aliquots of serum were assayed for prolactin.
In addition, prolactin levels were determined in two runs in which the rats were not pretreated with reserpin. The dose level of the drug was maintained at 1 mg./kg.

## CCCN1CCc2cc(O)c(O)c3c2C1Cc1c[nH]nc1-3 (racemic) [1,2-Dihydroxy-6-n-propyl-4,5,,6,6a,7,9-hexahydroindazolo[7,6,5-ij]isoquinoline]
  Prolactin Levels Non-Reserpinized 1: 40.0±9.5 (P<.05)
  Prolactin Levels Non-Reserpinized 2: 23.8±2.8
  Prolactin Levels Reserpinize: 49.9±6.0 (P<.01)

## C=CCN1CCc2cc(OC)c(OC)c3c2C1Cc1c[nH]nc1-3 (racemic) [l,2-Dimethoxy-6-allyl-4,5,6,6a,7,9-hexahydroindazolo[7,6,5-ij]isoquinoline]
  Prolactin Levels Non-Reserpinized 1: 7.3±1.6
  Prolactin Levels Reserpinize: 26.7±2.7

## CN1CCc2cc(O)c(O)c3c2C1Cc1c[nH]nc1-3 (stereo not shown) [1,2-Dihydroxy-6-methyl-4,5,6,6a,7,9-hexahydroindazolo[7,6,5-ij]isoquinoline]
  Prolactin Levels Non-Reserpinized 1: 45.2±5.4 (P<.001)
  Prolactin Levels Non-Reserpinized 2: 21.6±3.9
  Prolactin Levels Reserpinize: 36.4±4.9

## CCN1CCc2cc(OC)c(OC)c3c2C1Cc1c[nH]nc1-3 (stereo not shown) [1,2-Dimethoxy-6-ethyl-4,5,6,6a,7,9-hexahydroindazolo[7,6,5-ij]isoquinoline]
  Prolactin Levels Non-Reserpinized 1: 4.6±0.6
  Prolactin Levels Reserpinize: 30.5±4.9

## COc1cc2c3c(c1OC)-c1n[nH]cc1CC3N(C)CC2 (stereo not shown) [1,2-Dimethoxy-6-methyl-4,5,6,6a,7,9-hexahydroindazolo[7,6,5-ij]isoquinoline]
  Prolactin Levels Non-Reserpinized 1: 36.6±6.6 (P<.02)
  Prolactin Levels Non-Reserpinized 2: 9.0±3.2
  Prolactin Levels Reserpinize: 41.6±7.7

## CN1CCc2cccc3c2C1Cc1c[nH]nc1-3 (stereo not shown) [6-Methyl-4,5,6,6a,7,9-hexahydroindazolo-[7,6,5-ij]isoquinoline]
  Prolactin Levels Non-Reserpinized 1: 19.7±3.1
  Prolactin Levels Non-Reserpinized 2: 11.8±2.7
  Prolactin Levels Reserpinize: 39.3±7.3

## CCCN1CCc2cccc3c2C1Cc1c[nH]nc1-3 (stereo not shown) [6-n-Propyl-4,5,6,6a,7,9-hexahydroindazolo[7,6,5-ij]isoquinoline]
  Prolactin Levels Non-Reserpinized 1: 9.5±1.7
  Prolactin Levels Non-Reserpinized 2: 7.8±2.6
  Prolactin Levels Reserpinize: 22.6±3.8
